Read-outs that look alike come from different tables or passages of the source.
Experiments:
[1] = target: wt KIT kinase (Homo sapiens (Human), UniProt P10721); assay: Wild-type KIT binding assay (Kd determination, phage-tagged kinase, qPCR)
Method: Kd Determinations. For most assays, including wt KIT kinase, kinase-tagged T7 phage strains were prepared in an E. coli host derived from the BL21 strain. E. coli were grown to log-phase and infected with T7 phage and incubated with shaking at 32° C. until lysis. […] The liganded beads were blocked with excess biotin and washed with blocking buffer (SeaBlock (Pierce), 1% BSA, 0.05% Tween 20, 1 mM DTT) to remove unbound ligand and to reduce non-specific binding. […] Test compounds were prepared as 111× stocks in 100% DMSO. Kds were determined using an 11-point 3-fold compound dilution series with three DMSO control points. […] The compounds were then diluted directly into the assays such that the final concentration of DMSO was 0.9%. All reactions were performed in polypropylene 384-well plate. Each was a final volume of 0.02 ml. […] The kinase concentration in the eluates was measured by qPCR.
Binding Constants (Kds). Binding constants (Kds) were calculated with a standard dose-response curve using the Hill equation: Response=Background+Signal−Background 1+(KdHill Slope/DoseHill Slope). The Hill Slope was set to −1. Curves were fitted using a non-linear least square fit with the Levenberg-Marquardt algorithm.

[2] = Brain penetration in rats, brain to plasma ratios (Kp,brain, Kpuu,brain); type: in vivo, Sprague-Dawley rats; settings: for Kp uu at 24 h / Kp at 24 h: Sprague-Dawley, rat, brain, intravenous, 1 mg/kg/hr; for Kp at 24 h / Rat Kp: rat brain to plasma ratio; for Kp at 24 h: read-out: Rat Kp
Source text: To understand the brain penetration, brain to plasma ratios of the compounds were obtained in Sprague-Dawley (SD) rats. In vivo equilibrium distribution between blood and brain in preclinical species such as rats is a commonly used parameter to evaluate brain penetration. Kp,brain is the ratio of concentrations in brain and blood (Cbrain/Cplasma) The compound's passive diffusion characteristics, its affinity for membrane transporters at the blood-brain barrier (BBB), and the relative drug binding affinity differences between the plasma proteins and brain tissue influence the Kp,brain.
The animals received IV infusion of 1 mg/kg/hr of the compound over 24 hours via jugular vein cannulation. At 24 hours, blood was collected via tail vein bleeding or cardiac puncture (under anesthesia) and centrifuged to obtain plasma samples. Brain tissues were collected and homogenized with phosphate-buffered saline (PBS). The concentrations of the compounds were obtained in the plasma and brain homogenates by LC-MS/MS analysis.

[3] = target: KIT D816V (Homo sapiens (Human), UniProt P10721, D816V); assay: KIT D816V biochemical enzymatic activity assay (EZReader 2 mobility shift); settings: at APPKM for ATP, 20 μM ATP, 60 minutes
Sequence of KIT D816V (Homo sapiens (Human), UniProt P10721, D816V) (P10721 26-976 D816V): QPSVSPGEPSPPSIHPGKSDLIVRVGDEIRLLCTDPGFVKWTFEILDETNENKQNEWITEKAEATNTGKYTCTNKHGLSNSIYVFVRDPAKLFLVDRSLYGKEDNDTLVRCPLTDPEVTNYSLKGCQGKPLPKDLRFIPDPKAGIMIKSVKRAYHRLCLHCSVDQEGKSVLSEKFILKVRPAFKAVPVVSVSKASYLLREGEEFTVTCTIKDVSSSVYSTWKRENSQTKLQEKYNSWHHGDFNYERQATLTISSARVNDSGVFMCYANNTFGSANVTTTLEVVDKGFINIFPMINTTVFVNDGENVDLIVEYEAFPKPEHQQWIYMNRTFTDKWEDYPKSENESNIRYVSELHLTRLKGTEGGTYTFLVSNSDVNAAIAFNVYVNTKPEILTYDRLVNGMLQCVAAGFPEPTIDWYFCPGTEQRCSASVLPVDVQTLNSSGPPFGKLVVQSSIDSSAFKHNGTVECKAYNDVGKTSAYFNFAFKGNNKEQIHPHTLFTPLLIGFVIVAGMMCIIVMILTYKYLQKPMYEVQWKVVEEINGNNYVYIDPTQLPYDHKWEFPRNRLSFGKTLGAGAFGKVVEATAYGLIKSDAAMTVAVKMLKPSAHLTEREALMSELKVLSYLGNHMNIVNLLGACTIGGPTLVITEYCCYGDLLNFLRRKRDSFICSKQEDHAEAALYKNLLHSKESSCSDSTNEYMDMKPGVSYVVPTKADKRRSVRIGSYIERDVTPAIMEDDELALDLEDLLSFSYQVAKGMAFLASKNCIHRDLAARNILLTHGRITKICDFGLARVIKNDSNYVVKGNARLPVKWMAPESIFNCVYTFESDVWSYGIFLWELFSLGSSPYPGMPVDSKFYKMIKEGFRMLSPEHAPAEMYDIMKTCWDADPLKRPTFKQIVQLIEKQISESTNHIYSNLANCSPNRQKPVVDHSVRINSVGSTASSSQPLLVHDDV
Source text: (§1) PDGFRα and KIT enzymatic activity was monitored using the Perkin Elmer electrophoretic mobility shift technology platform, the EZReader 2.
(§2) Within the linear, steady-state phase of the kinase enzymatic reaction, the mixed pool of phosphorylated (product) and non-phosphorylated (substrate) peptides was passed through the microfluidic system of the PerkinElmer EZ Reader 2, under an applied electric potential difference. The presence of the phosphate group on the product peptide provided a difference in mass and charge between that of the substrate peptide, resulting in a separation of the substrate and product pools in the sample (Perrin et al., Expert Opin Drug Discovery 2010 Jan. 5(1):51-63).
(§3) As the product and substrate peptide mixture passes the lasers within the instrument, these pools are detected (λex=488 nm, λem=568 nm) and resolved as separate peaks. The ratio between these peaks reflects the activity of the compound at that concentration, in that well, under those conditions.
(§4) All test articles were dissolved in 100% DMSO at a stock concentration of 10 mM. A 100×, 10-point, 4-fold serial dilution of all test compounds was created in 100% DMSO, starting at a relevant concentration, usually 1 mM. A volume of 0.130 μL of each concentration was transferred to the relevant well of a 384-well assay plate (Greiner 781 201) using a TTPLabtech Mosquito nano-liter dispenser. Using the Multidrop, the remaining constituents of the reaction were then added to the 0.130 μL of compound as follows:
The plate was read on a Caliper EZReader 2.

[4] = target: PDGFRα D842V (Homo sapiens (Human), UniProt P16234, D842V); assay: PDGFRα D842V biochemical enzymatic activity assay (EZReader 2 mobility shift); settings: at APPKM for ATP, 25 μM ATP, 90 minutes
Sequence of PDGFRα D842V (P16234 24-1089 D842V): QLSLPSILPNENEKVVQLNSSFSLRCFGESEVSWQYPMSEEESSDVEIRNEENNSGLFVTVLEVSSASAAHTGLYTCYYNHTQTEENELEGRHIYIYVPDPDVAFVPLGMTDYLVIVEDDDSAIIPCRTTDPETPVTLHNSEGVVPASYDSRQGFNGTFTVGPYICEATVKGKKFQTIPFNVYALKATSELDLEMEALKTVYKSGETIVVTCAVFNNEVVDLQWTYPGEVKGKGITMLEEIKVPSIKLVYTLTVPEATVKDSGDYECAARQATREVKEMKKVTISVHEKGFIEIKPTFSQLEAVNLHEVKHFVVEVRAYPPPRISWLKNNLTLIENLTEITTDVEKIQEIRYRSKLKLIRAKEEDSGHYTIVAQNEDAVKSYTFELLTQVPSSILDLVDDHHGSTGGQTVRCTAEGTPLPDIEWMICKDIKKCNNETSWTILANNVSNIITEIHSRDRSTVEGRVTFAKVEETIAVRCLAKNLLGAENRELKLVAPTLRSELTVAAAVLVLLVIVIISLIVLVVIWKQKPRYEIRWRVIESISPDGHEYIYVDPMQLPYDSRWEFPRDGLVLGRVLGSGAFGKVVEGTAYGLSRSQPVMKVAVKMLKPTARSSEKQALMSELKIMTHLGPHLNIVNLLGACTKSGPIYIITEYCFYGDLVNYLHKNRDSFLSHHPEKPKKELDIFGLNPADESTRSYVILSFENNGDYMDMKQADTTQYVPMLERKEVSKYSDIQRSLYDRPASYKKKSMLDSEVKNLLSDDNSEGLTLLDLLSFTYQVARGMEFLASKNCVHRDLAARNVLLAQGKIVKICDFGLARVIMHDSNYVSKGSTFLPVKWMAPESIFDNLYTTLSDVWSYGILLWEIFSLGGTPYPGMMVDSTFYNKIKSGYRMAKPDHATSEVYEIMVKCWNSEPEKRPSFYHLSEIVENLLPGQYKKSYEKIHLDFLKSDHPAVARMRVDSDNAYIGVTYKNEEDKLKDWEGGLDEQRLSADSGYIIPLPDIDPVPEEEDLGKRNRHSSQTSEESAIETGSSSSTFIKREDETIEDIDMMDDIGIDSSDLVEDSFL
Source text: as §1, §2, §3
Inhibition of KIT (D816V) PDGFRα (D842V) Mutant Biochemical Enzymatic Activity
as §4
The reaction was stopped by the addition of 70 μl of Stop buffer (100 mM HEPES pH 7.5, 0.015% Brij 35, 35 mM EDTA and 0.2% of Coating Reagent 3, Caliper Lifesciences). The plate was read on a Caliper EZReader 2.

[5] = target: KIT D816V (Homo sapiens (Human), UniProt P10721, D816V/V560G); assay: HMC1.2 autophosphorylation assay (phospho-Y719 KIT AlphaLISA); type: cell-based; settings: HMC1.2 cell line, KIT autophosphorylation at tyrosine 719, 90 minutes; read-out: KIT (P-KIT HMC1.2 (nM))
Sequence of KIT D816V (Homo sapiens (Human), UniProt P10721, D816V/V560G) (P10721 26-976 V560G/D816V): as the sequence (P10721 26-976 D816V) above, with V535G counted along it
Method: 10,000 HMC1.2 cells were incubated in 22 μL culture media (phenol-red free IMDM, no serum) in each well of a 384-well plate and serum starved overnight in a tissue culture incubator (5% CO2, 37° C.). […] 10 μL of 100 μg/mL streptavidin donor beads (Perkin Elmer) were added to each well, blocked from light with solid black adhesive and shaken at 300 rpm at room temperature for 2 hours. Fluorescence signal was obtained on Envision (Perkin Elmer) by AlphaScreen 384 well HTS protocol.

[6] = tested on: UT-7 cells; assay: UT-7 cell proliferation with SCF stimulation as a measure of wild-type KIT activity (CellTiter-Glo); type: cell-based, human; settings: Homo sapiens, UT7, 72 h, SCF-stimulated UT-7 cell proliferation
Source text: UT-7 Cell Proliferation with SCF Stimulation Assay as a Measure of Wild-Type KIT Activity
UT-7 cells are human megakaryoblastic leukemia cell lines that can be grown in culture with dependence on granulocyte macrophage colony stimulating factor (GM-CSF) or stem cell factor (SCF). UT-7 cells respond to SCF stimulation by activation of the KIT receptor tyrosine kinase and subsequent downstream signaling that can support cell growth and proliferation (Kuriu et al, 1999; Komatsu et al, 1991; Sasaki et al, 1995). Test compounds were assayed for their ability to inhibit SCF-stimulated proliferation of UT-7 cells.
Inhibition of SCF-stimulated UT-7 cell proliferation was assessed using the CellTiter-Glo assay that quantifies the amount of adenosine triphosphate (ATP) present, which is a readout of metabolically active cells and is directly proportional to the number of viable cells in culture. The ability of test compounds to inhibit SCF-stimulated UT-7 cell proliferation was determined using a 10-point dose curve ranging from 25 μM to 95.4 pM of test compound.
UT-7 cells were maintained in IMDM supplemented with 10% FBS, 5 ng/mL GM-CSF and 100 units/mL Penicillin-Streptomycin and grown in a 37° C. humidified tissue culture incubator. UT-7 cells were washed once with serum free, GM-CSF free IMDM. Cells were then resuspended in IMDM containing 4% FBS and 50 ng/mL SCF and seeded at 2500 cells per well in a volume of 22 μL in a 384-well microplate. A 10-point dose concentration series of test compounds (25.0 μM to 95.4 pM) were then added to the cells in a volume of 3.1 μL to each well (0.25% DMSO final concentration) and placed in a tissue culture incubator (5% CO2, 37° C.) for 72 hours. After 3-days with test compound, CellTiter-Glo reagent was prepared fresh and 25 μL of reagent was added to each well. The plate was mixed by shaking for 10 minutes at RT at 300 rpm on a plate shaker. The plate was read on an EnVision plate reader using the Ultra Sensitive Luminescence protocol for a 384-well plate.

[7] = rat brain slice, read-out: Rat Kp, uu Brain slice
[8] = homogenate rat brain, read-out: Rat Kp, uu Homogenate

Sequence of wt KIT kinase (P10721 26-976): as the sequence (P10721 26-976 D816V) above, with V791D counted along it

Kd [1] [nM] | Kp uu at 24 h [2, 7] | IC50 [3] [nM] | IC50 [4] [nM] | IC50 [5] [nM] | Kp uu at 24 h [2, 8] | Kp at 24 h [2] | Rat Kp [2] | SMILES | IC50 [6] [nM]
< 10 | 0.04 | ≤ 0.3 | ≤ 0.3 | < 4.5 |  |  |  | C[C@](N)(c1ccc(F)cc1)c1cnc(N2CCN(c3ncnn4cc(-c5cnn([C@@H]6COC[C@H]6O)c5)cc34)CC2)nc1 (single isomer, unassigned) [Compound 19] | 90.1 to 150
< 10 | ≤ 0.1 | 0.31 to 1 | ≤ 0.3 | < 4.5 | 0.36 |  |  | C[C@](N)(c1ccc(F)cc1)c1cnc(N2CCN(c3ncnn4cc(-c5cnn([C@H]6CC[C@@H]6O)c5)cc34)CC2)nc1 (single isomer, unassigned) [Compound 21] | 90.1 to 150
< 10 | ≤ 0.1 | ≤ 0.3 | ≤ 0.3 | < 4.5 | ≤ 0.2 | 0.43 |  | C[C@](N)(c1ccc(F)cc1)c1cnc(N2CCN(c3ncnn4cc(-c5cnn(CC6COC6)c5)cc34)CC2)nc1 [Compound 8, (S)-1-(4-fluorophenyl)-1-(2-(4-(6-(1-(oxetan-3-ylmethyl)-1H-pyrazol-4-yl)pyrrolo[2,1-f][1,2,4]triazin-4-yl)piperazin-1-yl)pyrimidin-5-yl)ethan-1-amine] | < 90
< 10 |  | 0.31 to 1 | ≤ 0.3 | < 4.5 |  |  | 0.23 | C[C@](N)(c1ccc(F)cc1)c1cnc(N2CCN(c3ncnn4cc(-c5cnn([C@H]6C[C@@H](O)C6)c5)cc34)CC2)nc1 [Compound 10, cis-3-(4-(4-(4-(5-((S)-1-Amino-1-(4-fluorophenyl)ethyl)pyrimidin-2-yl)piperazin-1-yl)pyrrolo[2,1-f][1,2,4]triazin-6-yl)-1H-pyrazol-1-yl)cyclobutanol] | < 90
< 10 |  | ≤ 0.3 | ≤ 0.3 | < 4.5 | 0.22 | < 0.39 | 0.35 | C[C@](N)(c1ccc(F)cc1)c1cnc(N2CCN(c3ncnn4cc(-c5cnn([C@@H]6CCOC6)c5)cc34)CC2)nc1 [Compound 14, (S)-1-(4-Fluorophenyl)-1-(2-(4-(6-(1-((R)-tetrahydrofuran-3-yl)-1H-pyrazol-4-yl)pyrrolo[2,1-f][1,2,4]triazin-4-yl)piperazin-1-yl)pyrimidin-5-yl)ethanamine] | 150 to 200
< 10 | ≤ 0.1 | ≤ 0.3 | ≤ 0.3 | < 4.5 | 0.62 | 0.9 |  | C[C@](N)(c1ccc(F)cc1)c1cnc(N2CCN(c3ncnn4cc(-c5cnn([C@H]6CCOC6)c5)cc34)CC2)nc1 [Compound 15, (S)-1-(4-Fluorophenyl)-1-(2-(4-(6-(1-((S)-tetrahydrofuran-3-yl)-1H-pyrazol-4-yl)pyrrolo[2,1-f][1,2,4]triazin-4-yl)piperazin-1-yl)pyrimidin-5-yl)ethanamine] | 150 to 200
< 10 | ≤ 0.1 | ≤ 0.3 | ≤ 0.3 | 4.6 to 10 | ≤ 0.2 | 0.93 |  | C[C@](N)(c1ccc(F)cc1)c1cnc(N2CCN(c3ncnn4cc(-c5cnn(C6CCOCC6)c5)cc34)CC2)nc1 [Compound 16, (S)-1-(4-Fluorophenyl)-1-(2-(4-(6-(1-(tetrahydro-2H-pyran-4-yl)-1H-pyrazol-4-yl)pyrrolo[2,1-f][1,2,4]triazin-4-yl)piperazin-1-yl)pyrimidin-5-yl)ethan-1-amine] | 150 to 200

From US10829493B2, “Compositions and methods for treating KIT- and PDGFRA-mediated diseases” (Blueprint Medicines Corporation, priority 2019, dated 2020)
